In patent publication US20110045101A1, “FUNGICIDAL SUBSTITUTED AZOLES” (E.I. Du Pont De Nemours and Company, priority 2009, published 2011):
Marks after values point to notes of the source that are not given here.

Assays:
Format in all cases: in vivo
Conditions in all cases: 100 = 100% disease control
[1] = system: Erysiphe graminis f. sp. tritici; test: Test J: wheat powdery mildew on wheat seedlings, sprayed the day before inoculation, visual disease rating
How it was run: (§1)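 Compounds were dissolved in acetone (3% of final volume), then suspended in 50/50 acetone/purified water with 250 ppm Trem® 014 surfactant. Suspensions at 200 ppm (some at 40 ppm) were sprayed to run-off, 200 ppm being equivalent to 500 g/ha.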

[2] = system: Puccinia recondita f. sp. tritici; test: Test I: wheat leaf rust on wheat seedlings, sprayed the day before inoculation, visual disease rating
How it was run: as §1

Alternaria solani = test: Test D: tomato early blight, sprayed the day before inoculation, visual disease rating
How it was run: as §1

Septoria tritici = test: Test G: wheat leaf blotch on wheat seedlings, sprayed the day before inoculation, visual disease rating
How it was run: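 Spray to run-off, 200 ppm (≈500 g/ha; starred = 40 ppm), acetone/water 50/50 + 250 ppm Trem® 014. Spore inoculation +1 d. 24° C saturated 48 h → 20° C 19 d. Visual rating.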

Botrytis cinerea = test: Test C: tomato Botrytis on tomato seedlings, sprayed the day before inoculation, visual disease rating
How it was run: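 Compounds were dissolved in acetone (3% of final volume), then suspended in 50/50 acetone/purified water containing 250 ppm polyhydric alcohol ester surfactant. Suspensions were sprayed to run-off on tomato seedlings at 200 ppm, equivalent to 500 g/ha, or at 40 ppm where marked.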

Septoria nodorum = test: Test F: wheat glume blotch on wheat seedlings, sprayed the day before inoculation, visual disease rating
How it was run: as §1

[3] = 200 ppm, 0 = no control relative to controls

SMILES | Test J disease control rating [1, 3] | Test I disease control rating [2, 3] | Test D disease control rating (Alternaria solani; [3]) | Test G disease control rating (Septoria tritici; [3]) | Test C disease control rating (Botrytis cinerea; [3]) | Test F disease control rating (Septoria nodorum; [3]) | other results
Cc1nc(Cl)c(-c2c(F)cccc2F)n1Cc1ccc(Cl)cc1 [compound 128] | 100% | 97% | 96% | 93% | 97% | 96% | –
Fc1ccc(-n2c(Cl)nc(Cl)c2-c2c(F)ccc(F)c2F)cc1 [compound 129] | 95% | 74% | 100% | 89% | 99% | 0% | –
Cc1ccc(-n2c(Cl)nc(Cl)c2-c2c(F)ccc(F)c2F)cc1 [compound 130] | 96% | 99% | 100% | 85% | 98% | 0% | –
Fc1cc(F)c(-n2c(Br)nc(Cl)c2-c2ccc(Cl)cc2)c(F)c1 [compound 131] | – | – | – | – | – | – | Test J disease control rating ([1]; 40 ppm (marked *)): 48* %; Test I disease control rating ([2]; 40 ppm (marked *)): 0* %; Test D disease control rating (Alternaria solani; 40 ppm (marked *)): 99* %; Test G disease control rating (Septoria tritici; 40 ppm (marked *)): 85* %; Test C disease control rating (Botrytis cinerea; 40 ppm (marked *)): 90* %; Test F disease control rating (Septoria nodorum; 40 ppm (marked *)): 0* %
COc1cc(F)c(-c2c(Cl)ncn2-c2ccc(Cl)cc2)c(Cl)c1 [compound 132] | 97% | 74% | 98% | 92% | 94% | 0% | –
COc1cc(Cl)cc(F)c1-c1c(Cl)ncn1-c1ccc(Cl)cc1 [compound 133] | 0% | 0% | 0% | 0% | 0% | 0% | –
Fc1ccc(-n2c(Br)nc(Cl)c2-c2c(F)ccc(F)c2F)cc1 [compound 134] | 100% | 99% | 100% | 93% | 97% | 99% | –
Fc1cc(-n2c(Cl)nc(Cl)c2-c2c(F)ccc(F)c2F)ccc1Cl [compound 135] | 100% | 100% | 100% | 93% | 99% | 0% | –
COc1cc(F)c(-c2c(Cl)ncn2-c2ccc(F)cc2)c(F)c1 [compound 136] | 100% | 100% | 100% | 96% | 99% | 99% | –
Fc1ccc(-n2cnc(Cl)c2-c2c(F)cc(F)cc2F)cc1 [compound 137] | 97% | 55% | 100% | 98% | 94% | 0% | –
COc1cc(F)c(-c2c(Cl)ncn2-c2ccc(C)cc2)c(F)c1 [compound 138] | 100% | 100% | 100% | 99% | 98% | 92% | –
Cc1ccc(-n2cnc(Cl)c2-c2c(F)cc(F)cc2F)cc1 [compound 139] | 98% | 98% | 100% | 75% | 99% | 0% | –
COc1cc(Cl)cc(F)c1-c1c(Cl)nc(Br)n1-c1ccc(Cl)cc1 [compound 140] | 39% | 55% | 0% | 93% | 0% | 0% | –
Cc1ccc(-n2c(Br)nc(Cl)c2-c2c(F)ccc(F)c2F)cc1 [compound 141] | 100% | 99% | 100% | 91% | 99% | 0% | –
COc1cc(F)c(-c2c(Cl)nc(Cl)n2-c2ccc(F)cc2)c(F)c1 [compound 142] | 100% | 100% | 100% | 94% | 99% | 97% | –
Fc1cc(-n2c(Br)nc(Cl)c2-c2c(F)ccc(F)c2F)ccc1Cl [compound 143] | 100% | 100% | 100% | 100% | 99% | 100% | –
COc1cc(F)c(-c2c(Cl)nc(Br)n2-c2ccc(F)cc2)c(F)c1 [compound 144] | 100% | 100% | 100% | 100% | 100% | 100% | –
Cc1nc(Cl)c(-c2c(F)ccc(F)c2F)n1-c1ccc(F)cc1 [compound 145] | 100% | 100% | 100% | 100% | 99% | 100% | –
COc1cc(F)c(-c2c(Cl)nc(Cl)n2-c2ccc(C)cc2)c(F)c1 [compound 146] | 100% | 100% | 100% | 100% | 99% | 100% | –
Fc1ccc(-n2c(Cl)nc(Cl)c2-c2c(F)cc(F)cc2F)cc1 [compound 147] | – | – | – | – | – | – | Test J disease control rating ([1]; 200 ppm, 0 = no control): 99%; Test I disease control rating ([2]; 200 ppm, 0 = no control): 100%; Test D disease control rating (Alternaria solani; 200 ppm, 0 = no control): 100%; Test G disease control rating (Septoria tritici; 200 ppm, 0 = no control): 100%; Test C disease control rating (Botrytis cinerea; 200 ppm, 0 = no control): 91%; Test F disease control rating (Septoria nodorum; 200 ppm, 0 = no control): 82%
COc1cc(F)c(-c2c(Cl)nc(Br)n2-c2ccc(C)cc2)c(F)c1 [compound 148] | – | – | – | – | – | – | Test J disease control rating ([1]; 200 ppm, 0 = no control): 100%; Test I disease control rating ([2]; 200 ppm, 0 = no control): 100%; Test D disease control rating (Alternaria solani; 200 ppm, 0 = no control): 100%; Test G disease control rating (Septoria tritici; 200 ppm, 0 = no control): 100%; Test C disease control rating (Botrytis cinerea; 200 ppm, 0 = no control): 99%; Test F disease control rating (Septoria nodorum; 200 ppm, 0 = no control): 99%
COc1cc(Cl)cc(F)c1-c1c(Cl)nc(C)n1-c1ccc(Cl)cc1 [compound 149] | – | – | – | – | – | – | Test J disease control rating ([1]; 200 ppm, 0 = no control): 95%; Test I disease control rating ([2]; 200 ppm, 0 = no control): 95%; Test D disease control rating (Alternaria solani; 200 ppm, 0 = no control): 0%; Test G disease control rating (Septoria tritici; 200 ppm, 0 = no control): 96%; Test C disease control rating (Botrytis cinerea; 200 ppm, 0 = no control): 53%; Test F disease control rating (Septoria nodorum; 200 ppm, 0 = no control): 98%
Fc1cccc(F)c1-n1c(Cl)nc(Cl)c1-c1ccc(Cl)cc1 [compound 150] | – | – | – | – | – | – | Test J disease control rating ([1]; 200 ppm, 0 = no control): 100%; Test I disease control rating ([2]; 200 ppm, 0 = no control): 97%; Test D disease control rating (Alternaria solani; 200 ppm, 0 = no control): 100%; Test G disease control rating (Septoria tritici; 200 ppm, 0 = no control): 98%; Test C disease control rating (Botrytis cinerea; 200 ppm, 0 = no control): 99%; Test F disease control rating (Septoria nodorum; 200 ppm, 0 = no control): 60%
